{"source": "paper PMC4860631", "about": "“Pharmacokinetics and tolerability of NSC23925b, a novel P-glycoprotein inhibitor: preclinical study in mice and rats” (Scientific Reports, 2016)", "key": {"[1]": {"target": "T1, CYP2C19 (Homo sapiens, UniProt P33261)", "T1 construct": "from tissue; host or cells: human liver microsomes", "T1 sequence (P33261 whole entry)": "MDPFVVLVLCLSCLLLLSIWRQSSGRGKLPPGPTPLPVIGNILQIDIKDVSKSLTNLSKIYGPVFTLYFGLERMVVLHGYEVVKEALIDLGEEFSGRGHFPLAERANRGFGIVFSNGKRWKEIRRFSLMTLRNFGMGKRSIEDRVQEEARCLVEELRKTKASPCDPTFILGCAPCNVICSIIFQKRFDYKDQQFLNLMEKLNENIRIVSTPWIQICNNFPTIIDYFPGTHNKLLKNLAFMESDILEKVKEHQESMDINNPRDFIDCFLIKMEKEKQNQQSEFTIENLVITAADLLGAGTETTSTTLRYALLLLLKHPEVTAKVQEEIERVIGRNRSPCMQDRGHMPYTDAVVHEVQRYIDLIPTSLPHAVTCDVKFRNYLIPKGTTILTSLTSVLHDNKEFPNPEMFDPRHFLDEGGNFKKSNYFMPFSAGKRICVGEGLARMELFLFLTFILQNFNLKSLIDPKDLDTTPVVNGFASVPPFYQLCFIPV", "assay": "HLM-LC-MS CYP450 inhibition assay, CYP2C19", "assay_type": "in vitro ADME", "protocol": "Compounds were tested in triplicate."}, "[2]": {"target": "T2, CYP1A2 (Homo sapiens, UniProt P05177)", "T2 sequence (P05177 1-516)": "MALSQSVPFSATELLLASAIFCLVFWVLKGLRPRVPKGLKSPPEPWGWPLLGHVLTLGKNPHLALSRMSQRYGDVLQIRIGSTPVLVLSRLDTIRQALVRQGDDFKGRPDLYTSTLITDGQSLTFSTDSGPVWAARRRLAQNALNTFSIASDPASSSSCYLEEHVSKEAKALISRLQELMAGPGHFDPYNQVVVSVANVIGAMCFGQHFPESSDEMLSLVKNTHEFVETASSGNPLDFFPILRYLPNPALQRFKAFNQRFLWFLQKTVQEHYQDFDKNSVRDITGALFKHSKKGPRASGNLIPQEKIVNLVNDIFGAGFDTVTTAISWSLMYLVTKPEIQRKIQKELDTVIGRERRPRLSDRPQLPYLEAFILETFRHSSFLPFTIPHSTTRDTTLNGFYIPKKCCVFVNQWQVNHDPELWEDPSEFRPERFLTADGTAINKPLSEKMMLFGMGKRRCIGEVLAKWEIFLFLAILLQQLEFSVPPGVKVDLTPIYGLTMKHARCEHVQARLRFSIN", "assay": "HLM-LC-MS CYP450 inhibition assay, CYP1A2", "assay_type": "in vitro ADME"}, "[3]": {"assay": "Determination of maximum tolerated dose (MTD) in mice", "assay_type": "in vivo", "conditions": "mouse, in vivo", "protocol": "(§1) The MTD determination assay was composed of sighting study and main study. For the sighting study of the determination maximum tolerable dose (MTD) of NSC23925b, one of each animal (one female rat, one male rat, one female mouse, and one male mouse) was used at each I.V. and I.P. injection dose level. The starting dose was selected from the fixed dose levels (5, 50, 500, 2000 mg/kg) as a dose expected to produce evident toxicity. The first animal was dosed and observed. Time of appearance, degree, and lasting/recovery time of signs were recorded in details. Afterwards, animals were observed twice on the dosing day and then changed to daily observation. The observation lasted at least 14 days. If the first animal died or appeared impaired, the second animal received a middle dose of the two doses and vice versa. The sighting study was completed when a decision on the starting dose for the main study was made.\n(§2) During the main study, a total of five animals of one sex were used for each dose level investigated. The five animals were made up of one animal from the sighting study dosed at the selected dose level together with an additional four animals. Each group received one of the fixed doses by I.V. and I.P. based on the sighting study. If the first animal died or appeared impaired, the second animal received a middle dose of the two doses and vice versa.\n(§3) Animals were fasted overnight prior to dosing. Following the period of fasting, the animals were weighed and the dose was calculated according to the body weight. After the animals were administrated a dose volume of 10 mL/kg, food was withheld for another 3–4 hours. Individual weights of animals were determined shortly before the test substance was administered and twice weekly thereafter. Weight changes were calculated and recorded. Animals injected with saline were the control group for the weight alteration."}, "[4]": {"system": "BALB/c mice", "assay": "Determination of maximum tolerated dose (MTD) in mice", "assay_type": "in vivo", "conditions": "mice, 5 exposed", "protocol": "as §1, §2, §3"}, "[5]": {"assay": "in vivo", "conditions": "male, Sprague-Dawley, rat; for AUC(0-inf): AUC0-inf; for AUC(0-t): AUC0-t; for k el: Kel; for half-life: t1/2"}, "[6]": {"target": "T3, CYP3A4 (Homo sapiens, UniProt P08684)", "T3 construct": "from tissue; host or cells: human liver microsomes", "T3 sequence (P08684 whole entry)": "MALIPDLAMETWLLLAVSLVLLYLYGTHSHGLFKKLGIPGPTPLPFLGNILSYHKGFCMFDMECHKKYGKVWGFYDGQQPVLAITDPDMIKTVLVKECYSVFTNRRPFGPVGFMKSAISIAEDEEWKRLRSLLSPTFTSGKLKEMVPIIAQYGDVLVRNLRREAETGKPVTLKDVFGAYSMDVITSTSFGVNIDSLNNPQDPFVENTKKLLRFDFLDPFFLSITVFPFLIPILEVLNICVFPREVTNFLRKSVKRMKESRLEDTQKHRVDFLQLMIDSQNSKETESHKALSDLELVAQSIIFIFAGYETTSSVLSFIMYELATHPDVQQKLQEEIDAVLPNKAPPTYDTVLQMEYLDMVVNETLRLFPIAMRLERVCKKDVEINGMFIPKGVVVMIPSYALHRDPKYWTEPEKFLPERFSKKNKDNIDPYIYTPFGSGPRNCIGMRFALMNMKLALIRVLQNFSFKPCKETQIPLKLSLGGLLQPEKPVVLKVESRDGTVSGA", "assay": "HLM-LC-MS CYP450 inhibition assay, CYP3A4", "assay_type": "in vitro ADME", "experimental": "(§4) A sigmoid-shaped curve (Log(inhibitor) vs. Response-Variable slope) was fitted to the data and the IC50 was calculated using GraphPad Prism software.\n(§5) This assay used a cocktail of drug-probe substrates that are specific to each isozyme with HLM and LC-MS detection[33][34]. Each test article and reference inhibitor was dissolved in 40% DMSO and 60% acetonitrile (ACN) mixture. […] Substrates were then added to their respective well containing the compound/HLM solution to start the reaction. […] The solution was centrifuged at 4 °C for 30 min at 3,700 rpm and the supernatant was transferred for LC-MS analysis. The concentrations of the metabolites were determined from standard curves using commercially available metabolite standards. Compounds were tested in triplicate. The half maximal inhibitory concentration (IC50) values were determined by plotting the metabolite formation over the logarithm of the compound concentration using Prism 5.0 software (GraphPad Software Inc., San Diego, CA)."}, "[7]": {"target": "T4, CYP2C9 (Homo sapiens, UniProt P11712)", "T4 construct": "from tissue; host or cells: human liver microsomes", "T4 sequence (P11712 whole entry)": "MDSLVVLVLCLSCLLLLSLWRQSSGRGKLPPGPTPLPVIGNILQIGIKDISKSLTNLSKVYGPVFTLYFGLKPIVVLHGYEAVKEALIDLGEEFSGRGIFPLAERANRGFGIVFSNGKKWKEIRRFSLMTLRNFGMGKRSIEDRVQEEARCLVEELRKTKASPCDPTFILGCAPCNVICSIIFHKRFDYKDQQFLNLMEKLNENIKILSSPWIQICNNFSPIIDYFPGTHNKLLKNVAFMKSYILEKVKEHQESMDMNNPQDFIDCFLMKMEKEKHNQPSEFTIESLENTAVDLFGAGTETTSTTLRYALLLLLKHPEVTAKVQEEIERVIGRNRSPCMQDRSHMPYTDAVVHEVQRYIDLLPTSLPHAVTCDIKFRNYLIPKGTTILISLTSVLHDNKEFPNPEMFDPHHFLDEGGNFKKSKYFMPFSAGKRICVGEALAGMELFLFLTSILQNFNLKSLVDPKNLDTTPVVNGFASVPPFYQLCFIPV", "assay": "HLM-LC-MS CYP450 inhibition assay, CYP2C9", "assay_type": "in vitro ADME", "experimental": "as §4, §5"}, "[8]": {"assay": "in vivo", "conditions": "mouse, in vivo; for AUC(0-inf): AUC0-inf; for AUC(0-t): AUC0-t; for k el: Kel; for half-life: t1/2", "protocol": "After dosing, blood samples were collected at different time points for each group. […] Three animals were used for each time point. Approximately 800 μL of blood was collected via orbital vein (a source of collecting sufficient volume of venous blood) from each anesthetized mouse by isoflurane, and 200 μL of blood was collected from the cannula implanted in the jugular vein. The catheter was implanted when the blood sample was collected at the first time point. Next, the blood was transferred to a prepared tube containing sodium heparin anticoagulant and mixed briefly by gentle inversion three to four times. The target and actual time of blood sampling were recorded relative to the time of dosing. Samples were placed on wet ice immediately after collection. Within 1 hour after collection, plasma was separated by centrifugation at 4,000 rpm for 10 minutes at 4 °C. The plasma was protected from light and stored at −80 °C until analyzed by liquid chromatography-mass spectrometry/mass spectrometry (LC-MS/MS) for quantification.\nUsing the data from the standards, calibration curves were generated for each analytical batch. Aliquots of 10.0 μL of samples, calibraton curve samples, and QC samples were supplemented with 100 μL of precipitant (a mixture of acetone and acetonitrile (30:70)). After vortexing for 3 min and centrifuging at 12,000 rpm for 3 min, 75.00 μL of the supernatant was transferred into a 96-well microplate with an equal volume of water. The 10 μL mixture solution was injected for LC-MS/MS analysis.\nData collection was performed using Analyst version 1.4 from Applied Biosystems. […] The data were also analyzed using Prism 5.0 software. Statistical significance was determined using independent two-tailed Student t-tests and one-way ANOVA for independent data. Differences of P < 0.05 were regarded as significant for all statistical analyses."}}, "note": "Read-outs that look alike come from different tables or passages of the source."}
{"compound": "COc1ccc(-c2cc(C(O)C3CCCCN3)c3ccccc3n2)cc1", "note": "(stereo not shown) [NSC23925b, (2-(4-methoxyphenyl)-4-quinolinyl)(2-piperidinyl)methanol]", "values": [{"measurement": "CYP inhibitor class", "setting": "[1]", "result": "weak (IC50 values of >10 μM)"}, {"measurement": "IC50", "setting": "[1]; substrate S-mephenytoin 35 μM, 4-hydroxylation, read-out: Compound IC50", "result": "> 10", "unit": "µM"}, {"measurement": "CYP inhibitor class", "setting": "[2]", "result": "weak (IC50 values of >10 μM)"}, {"measurement": "IC50", "setting": "[2]; substrate phenacetin 30 μM, O-deethylation, read-out: Compound IC50", "result": "> 10", "unit": "µM"}, {"measurement": "MTD", "setting": "[3]; BALB/c, ip, male mice, I.P., all five tolerated, read-out: tolerated dosage (MTD study)", "result": 68.8, "unit": "mg/kg"}, {"measurement": "MTD", "setting": "[3]; both sexes, BALB/c (mice), Sprague-Dawley (rats), intraperitoneal, intravenous, rodents (mice and rats), I.P./I.V., read-out: tolerated dosage according to the MTD results", "result": "24.7 to 93.8", "unit": "mg/kg"}, {"measurement": "MTD", "setting": "[3]; both sexes, BALB/c, iv, female and male mice, I.V., health conditions not significantly influenced, read-out: tolerated dosage (MTD study)", "result": 24.7, "unit": "mg/kg"}, {"measurement": "Number of Death", "setting": "[4]; I.P., 68.80 mg/kg, male", "result": 0}, {"measurement": "Number of Death", "setting": "[4]; I.P., 93.75 mg/kg, female", "result": 2}, {"measurement": "Number of Death", "setting": "[4]; I.V., 24.70 mg/kg, female", "result": 0}, {"measurement": "Number of Death", "setting": "[4]; I.V., 24.70 mg/kg, male", "result": 0}, {"measurement": "Cmax", "setting": "[5]; ip, 5 mg/kg", "result": "128 ± 44.3", "unit": "ng/mL"}, {"measurement": "AUC(0-inf)", "setting": "[5]; ip, 5 mg/kg", "result": "1990 ± 855", "unit": "ng·h/mL"}, {"measurement": "AUC(0-t)", "setting": "[5]; ip, 5 mg/kg", "result": "1390 ± 173", "unit": "ng·h/mL"}, {"measurement": "k el", "setting": "[5]; ip, 5 mg/kg", "result": "2.29e-05", "unit": "s⁻¹"}, {"measurement": "half-life", "setting": "[5]; ip, 5 mg/kg", "result": "554 ± 226", "unit": "min"}, {"measurement": "Tmax", "setting": "[5]; ip, 5 mg/kg, tmax", "result": "~2.17", "unit": "h"}, {"measurement": "AUC(0-inf)", "setting": "[5]; iv, 2.5 mg/kg", "result": "902 ± 57.4", "unit": "ng·h/mL"}, {"measurement": "AUC(0-t)", "setting": "[5]; iv, 2.5 mg/kg", "result": "766 ± 51.9", "unit": "ng·h/mL"}, {"measurement": "clearance", "setting": "[5]; iv, 2.5 mg/kg, CL", "result": "46.3 ± 3.06", "unit": "mL/min/kg"}, {"measurement": "k el", "setting": "[5]; iv, 2.5 mg/kg", "result": "2.18e-05", "unit": "s⁻¹"}, {"measurement": "Vd", "setting": "[5]; iv, 2.5 mg/kg, VdSS", "result": "32.4 ± 3.06", "unit": "L/kg"}, {"measurement": "half-life", "setting": "[5]; iv, 2.5 mg/kg", "result": "532 ± 32.5", "unit": "min"}, {"measurement": "CYP inhibitor class", "setting": "[6]", "result": "weak (IC50 values of >10 μM)"}, {"measurement": "IC50", "setting": "[6]; substrate midazolam 5 μM, 1-hydroxylation, read-out: Compound IC50", "result": "> 10", "unit": "µM"}, {"measurement": "IC50", "setting": "[6]; substrate not specified, read-out: IC50", "result": "> 10", "unit": "µM"}, {"measurement": "IC50", "setting": "[6]; substrate testosterone 80 μM, 6ß-hydroxylation, read-out: Compound IC50", "result": "> 10", "unit": "µM"}, {"measurement": "CYP inhibitor class", "setting": "[7]", "result": "weak (IC50 values of >10 μM)"}, {"measurement": "IC50", "setting": "[7]; substrate diclofenac 10 μM, 4-hydroxylation, read-out: Compound IC50", "result": "> 10", "unit": "µM"}, {"measurement": "volumes of distribution at a steady state", "setting": "[8]; male, BALB/c (mice), Sprague-Dawley (rats)", "result": "> 9", "unit": "L/kg"}, {"measurement": "time of highest concentrations in plasma after I.P. injection", "setting": "[8]; male, BALB/c (mice), Sprague-Dawley (rats), ip, 5 mg/kg", "result": "1 to 2", "unit": "h"}, {"measurement": "time of highest concentrations in plasma after I.V. injection", "setting": "[8]; male, BALB/c (mice), Sprague-Dawley (rats), iv, 2.5 mg/kg", "result": 5, "unit": "min"}, {"measurement": "time point of peak plasma NSC23925b concentrations for both I.V. and I.P.", "setting": "[8]; male, BALB/c", "result": 15, "unit": "min"}, {"measurement": "AUMC0-inf", "setting": "[8]; male, BALB/c, ip, 5 mg/kg", "result": "50744 ± 36083", "unit": "h·h·ng·mL^−1"}, {"measurement": "AUMC0-t", "setting": "[8]; male, BALB/c, ip, 5 mg/kg", "result": "25329 ± 4810", "unit": "h·h·ng·mL^−1"}, {"measurement": "Cmax", "setting": "[8]; male, BALB/c, ip, 5 mg/kg", "result": "298 ± 56.1", "unit": "ng/mL"}, {"measurement": "F", "setting": "[8]; male, BALB/c, ip, 5 mg/kg", "result": "117.1 ± 24.06", "unit": "%"}, {"measurement": "AUC(0-inf)", "setting": "[8]; male, BALB/c, ip, 5 mg/kg", "result": "3980 ± 819", "unit": "ng·h/mL"}, {"measurement": "AUC(0-t)", "setting": "[8]; male, BALB/c, ip, 5 mg/kg", "result": "3360 ± 197", "unit": "ng·h/mL"}, {"measurement": "k el", "setting": "[8]; male, BALB/c, ip, 5 mg/kg", "result": "2.56e-05", "unit": "s⁻¹"}, {"measurement": "half-life", "setting": "[8]; male, BALB/c, ip, 5 mg/kg", "result": "521 ± 251", "unit": "min"}, {"measurement": "Tmax", "setting": "[8]; male, BALB/c, ip, 5 mg/kg, tmax", "result": "~1.5", "unit": "h"}, {"measurement": "AUMC0-inf", "setting": "[8]; male, BALB/c, iv, 2.5 mg/kg", "result": "11945 ± 2141", "unit": "h·h·ng·mL^−1"}, {"measurement": "AUMC0-t", "setting": "[8]; male, BALB/c, iv, 2.5 mg/kg", "result": "9893 ± 1299", "unit": "h·h·ng·mL^−1"}, {"measurement": "MRTIV", "setting": "[8]; male, BALB/c, iv, 2.5 mg/kg", "result": "6.99 ± 0.836", "unit": "h"}, {"measurement": "AUC(0-inf)", "setting": "[8]; male, BALB/c, iv, 2.5 mg/kg", "result": "1700 ± 130", "unit": "ng·h/mL"}, {"measurement": "AUC(0-t)", "setting": "[8]; male, BALB/c, iv, 2.5 mg/kg", "result": "1640 ± 114", "unit": "ng·h/mL"}, {"measurement": "clearance", "setting": "[8]; male, BALB/c, iv, 2.5 mg/kg, CL", "result": "24.6 ± 1.96", "unit": "mL/min/kg"}, {"measurement": "k el", "setting": "[8]; male, BALB/c, iv, 2.5 mg/kg", "result": "3.89e-05", "unit": "s⁻¹"}, {"measurement": "Vd", "setting": "[8]; male, BALB/c, iv, 2.5 mg/kg, VdSS", "result": "10.3 ± 0.808", "unit": "L/kg"}, {"measurement": "half-life", "setting": "[8]; male, BALB/c, iv, 2.5 mg/kg", "result": "301 ± 39.7", "unit": "min"}, {"measurement": "treatment-related clinical signs during the pharmacokinetic study", "setting": "[8]", "result": "no treatment-related clinical signs were observed"}]}
